# Measurements reported in article PMC4883112 (Journal of medicinal chemistry, 2015).
# “Also recorded” adds a separate entry of the source.
# Experiments:
# [1] = Aqueous solubility, Shake-Flask method and HPLC; format: physicochemical; conditions: water with 2% DMSO
# [2] = target: GSK-3β (Sus scrofa, UniProt B2LUN4); test: Commercial in vitro GSK-3β inhibition assay at single concentration; format: biochemical, porcine; conditions: duplicates; for inhibition at 1 µM: read-out: GSK-3β Inhibition [%], 1 μM of compound
# [3] = test system: wild-type zebrafish (Danio rerio) embryos; test: Wild-type zebrafish embryo phenotype assay; conditions: for Lethality in zebrafish embryos: concentration range < 60μM, added 24 hpf, compared at 96 and 120 hpf
# [4] = target: GSK-3α (Sus scrofa, UniProt I6LNT8); test: Commercial in vitro GSK-3α inhibition assay at single concentration; format: biochemical, porcine; conditions: read-out: GSK-3α Inhibition [%]
# [5] = target: GSK-3β (h) (Homo sapiens, UniProt P49841); test: IC50 determination GSK-3β; format: biochemical
# [6] = test system: AML cell lines (HL-60 and NB4); test: AML differentiation; format: cell-based; conditions: 6 days of treatment
# [7] = test system: Tyr216 GSK-3β phosphorylation; test: GSK-3β Tyr216 phosphorylation in AML cells; format: cell-based; conditions: up to 20 μM; 24h treatment, NB4
# [8] = test system: NB4 and HL-60 cell lines; test: Methylcellulose colony formation; format: cell-based; conditions: concentration-dependent
# [9] = test system: Tyr279 GSK-3α phosphorylation; test: GSK-3α Tyr279 phosphorylation in AML cells; format: cell-based; conditions: 24h treatment, increasing concentrations, NB4
# GSK-3β, sequence (B2LUN4 1-420): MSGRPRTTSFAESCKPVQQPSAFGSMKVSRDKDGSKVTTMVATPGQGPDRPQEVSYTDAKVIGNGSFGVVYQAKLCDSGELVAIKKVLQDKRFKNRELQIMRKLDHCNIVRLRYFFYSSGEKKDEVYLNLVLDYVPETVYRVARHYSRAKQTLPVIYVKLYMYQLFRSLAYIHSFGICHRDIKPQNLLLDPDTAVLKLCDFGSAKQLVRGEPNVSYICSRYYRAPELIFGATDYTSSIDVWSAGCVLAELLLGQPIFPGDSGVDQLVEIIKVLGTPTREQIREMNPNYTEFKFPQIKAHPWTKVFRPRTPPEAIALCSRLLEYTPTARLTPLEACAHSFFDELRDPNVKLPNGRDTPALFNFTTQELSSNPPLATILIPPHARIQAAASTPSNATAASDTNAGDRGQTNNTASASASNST
# GSK-3α, sequence (I6LNT8 1-483): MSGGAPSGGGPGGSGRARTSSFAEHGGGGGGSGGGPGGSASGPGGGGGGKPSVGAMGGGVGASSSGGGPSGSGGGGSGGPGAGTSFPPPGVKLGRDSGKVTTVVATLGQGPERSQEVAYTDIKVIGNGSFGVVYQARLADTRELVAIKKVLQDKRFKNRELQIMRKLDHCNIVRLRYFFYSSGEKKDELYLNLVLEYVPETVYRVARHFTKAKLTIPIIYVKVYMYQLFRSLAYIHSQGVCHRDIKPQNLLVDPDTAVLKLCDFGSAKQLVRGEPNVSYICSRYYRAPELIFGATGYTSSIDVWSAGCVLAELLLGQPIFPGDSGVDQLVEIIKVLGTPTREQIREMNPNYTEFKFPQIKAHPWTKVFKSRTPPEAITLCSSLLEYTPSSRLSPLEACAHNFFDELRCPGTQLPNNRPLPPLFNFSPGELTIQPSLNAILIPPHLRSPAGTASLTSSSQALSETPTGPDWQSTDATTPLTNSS
# GSK-3β (h), sequence (P49841 whole entry): as the sequence (B2LUN4 1-420) above, with M40V, A59T, S392T, T400A, A402T, T411A counted along it
structure (smiles),measurement,setting,value
"N#Cc1cc(F)ccc1-c1ccc(CSc2nnc(-c3ccc4c(c3)OCCO4)o2)cc1 [Compound 1, 4′-(((5-(2,3-Dihydrobenzo[b][1,4]dioxin-6-yl)-1,3,4-oxadiazol-2-yl)thio)methyl)-4-fluoro-[1,1′-biphenyl]-2-carbonitrile]",solubility,[1],< 1 µg/mL
"N#Cc1cc(F)ccc1-c1ccc(CSc2nnc(-c3ccc4nc[nH]c4c3)o2)cc1 [Compound 12a, 4′-(((5-(1H-Benzo[d]imidazol-6-yl)-1,3,4-oxadiazol-2-yl)thio)methyl)-4-fluoro-[1,1′-biphenyl]-2-carbonitrile]",inhibition at 1 µM,[2],0%
"N#Cc1ccc(-c2ccc(CSc3nnc(-c4ccc5c(c4)OCCO5)o3)cc2)nc1 [Compound 13d, 6-(4-((5-(2,3-Dihydrobenzo[b][1,4]dioxin-6-yl)-1,3,4-oxadiazol-2-ylthio)methyl)phenyl)-nicotinonitrile]",solubility,[1],78 µg/mL
same,Lethality in zebrafish embryos,[3],no lethality
same,Effects on zebrafish embryo phenotype,[3]; in vivo,no effects
"Cc1ccc(-c2ccc(CSc3nnc(-c4ccc5c(c4)OCCO5)o3)cc2)nc1 [Compound 13e, 2-(2,3-Dihydrobenzo[b][1,4]dioxin-6-yl)-5-(4-(5-methylpyridin-2-yl)benzylthio)-1,3,4-oxadiazole]",solubility,[1],< 1 µg/mL
"Fc1ccc(-c2ccc(CSc3nnc(-c4ccc5c(c4)OCCO5)o3)cc2)cn1 [Compound 13f, 2-(2,3-Dihydrobenzo[b][1,4]dioxin-6-yl)-5-((4-(6-fluoropyridin-3-yl)benzyl)thio)-1,3,4-oxadiazole]",solubility,[1],7 µg/mL
"Fc1ccc(-c2ccc(CSc3nnc(-c4ccc5c(c4)OCCO5)o3)cn2)cn1 [Compound 18c, 2-(2,3-Dihydrobenzo[b][1,4]dioxin-6-yl)-5-(((6′-fluoro-[2,3′-bipyridin]-5-yl)methyl)thio)-1,3,4-oxadiazole]",solubility,[1],< 1 µg/mL
"N#Cc1cc(F)ccc1-c1ccc(CS(=O)(=O)c2nnc(-c3ccc4c(c3)OCCO4)o2)cc1 [Compound 26, 4′-((5-(2,3-Dihydrobenzo[b][1,4]dioxin-6-yl)-1,3,4-oxadiazol-2-yl-sulfonyl)methyl)-4-fluorbiphenyl-2-carbonitrile]",inhibition at 0.1 µM,"[2]; read-out: GSK-3β Inhibition [%], 100 nM of compound",0%
same,inhibition at 0.1 µM,[4],0%
"NC(=O)c1cc(F)ccc1-c1ccc(CSc2nnc(-c3ccc4c(c3)OCCO4)o2)cc1 [Compound 27, 4′-((5-(2,3-Dihydrobenzo[b][1,4]dioxin-6-yl)-1,3,4-oxadiazol-2-yl-thio)-methyl)-4-fluorbiphenyl-2-carboxamide]",inhibition at 1 µM,[2],100%
same,IC50,[5],14 nM
same,Morphological and surface marker changes,[6],consistent with AML differentiation
same,Tyr216 GSK-3β phosphorylation,[7],without any relevant effect
same,Methylcellulose colony formation,[8],colony formation impairment
same,inhibition at 1 µM,[4],100%
same,Tyr279 GSK-3α phosphorylation,[9],concentration-dependent decrease
same,solubility,[1],34 µg/mL
same,Lethality in zebrafish embryos,[3],no lethality; also recorded: without lethality
same,Zebrafish embryo phenotype at higher concentrations,[3]; in vivo,all zebrafish embryos showed a stunted and crooked tailed phenotype
same,Zebrafish embryo phenotype at lower concentrations,[3]; in vivo,no abnormalities were observed
